The text below walks through data of paper PMC11314410, “Synthesis and Anti-Trypanosoma cruzi Activity of New Pyrazole-Thiadiazole Scaffolds” (Molecules, 2024).

Data set [1] in a line: Toxicity in mammalian cells (CellTiter Glo, 72 h). The data set is classed as cell-based. Particulars: African green monkey, Vero cells; 72 h, ATP levels; read-out: Cytotoxicity Vero Cells CC50. The procedure: Vero cell cultures grown in RPMI 1640 medium containing 10% fetal bovine serum (FBS) were cultured at 37 °C in a humidified atmosphere of 5% CO2 [82]. The cultures were used for drug screening assays and to obtain culture-derived trypomastigotes of T. cruzi.
Vero cells (1.5 ×10^4 cells/well), cultivated for 24 h at 37 °C in white 96-well plates with clear bottoms, were used to assess the toxicity of the pyrazole-thiadiazole derivatives (series 1 and 2). After washing, the cells were incubated for 72 h at 37 °C with different drug concentrations (500–1.95 μM). Cell viability was measured by adding 20 μL/well of CellTiter Glo reagent (Promega Corporation, Madison, WI, USA). This cell viability kit generates a luminescent signal proportional to the amount of ATP. The luminescence readout was performed using the Glomax Microplate Reader (Promega Corporation, Madison, WI, USA). Thus, the 50% cytotoxicity concentration (CC50), which reduces the cell viability by 50% (CC50), was calculated with Prism GraphPad software (version 8.2.1).

The test system of data set [2] is Intracellular amastigotes of T. cruzi (Dm28c-Luc). The data set is described as follows: microbe, parasite or virus in culture. In kind it is cell-based, Trypanosoma cruzi. Particulars: for IC50 / IC90: Trypanosoma cruzi; for IC90: read-out: Anti-T. cruzi Activity Intracellular Amastigotes IC90. The protocol:
(§1) Genetically modified T. cruzi parasites, of clone Dm28c (TcI) expressing the firefly luciferase enzyme gene (Dm28c-Luc), were kindly provided by Dr. Cristina Henriques. T. cruzi Dm28c-Luc was maintained in a Vero cell cultivated in RPMI 1640 medium supplemented with 10% FBS. At 4-day post-infection (dpi), trypomastigotes, released in the cell culture supernatant, were harvested, followed by sedimentation (4000 rpm/20 min/4 °C) and quantification in a Neubauer chamber. Isolated trypomastigotes were used in the phenotypic screening assays as well as the antiparasitic activity in 3D cardiac microtissues, recovery (washout), and drug combination assays.
The activity of pyrazole-thiadiazole derivatives against intracellular amastigotes was evaluated in 24 h-T. cruzi infected Vero cell cultures (1.5 × 10^4 cells/well) at a 10:1 ratio. The cultures were washed and incubated with serial dilutions of the derivatives or Bz (100–0.41 µM). Drug treatment was carried out for 72 h at 37 °C and the parasite viability was determined by luminescence readout after D-Luciferin substrate addition (300 µg/mL). The reading was performed in the Glomax reader. The cell cultures incubated with the culture medium containing dimethylsulphoxide (DMSO; concentration ≤ 1%) were used as the […]. The concentrations required to inhibit parasite viability by 50% (IC50) and 90% (IC90) were calculated using Prism GraphPad software (version 8.2.1). The selectivity index (SI), which measures the window between cytotoxicity (CC50) and anti-T. cruzi activity (IC50), was calculated as CC50/IC50. A minimum of 3 independent assays in duplicate were performed.

Data set [3] relates to Trypomastigotes of T. cruzi (Dm28c-Luc). Nature of the data set: microbe, parasite or virus in culture. In kind it is cell-based, Trypanosoma cruzi. Particulars: for IC50 / IC90: Trypanosoma cruzi, Dm28c-Luc, 24 h treatment; for IC50: 24 h, mean ± SD, read-out: Anti-T. cruzi Activity Trypomastigotes IC50; for IC90: read-out: Anti-T. cruzi Activity Trypomastigotes IC90. The protocol:
as §1
Drug screening was performed against clinically relevant forms of T. cruzi (amastigotes and trypomastigotes). Trypomastigotes, Dm28c-Luc (1 × 10^6 parasites/well), were added to 96-well plates and incubated with pyrazole-thiadiazole derivatives or Bz (100–0.41 µM). After 24 h of treatment (37 °C), the viability of the parasites was analyzed by adding a D-Luciferin solution (300 µg/mL) and luminescence was measured in the Glomax microplate reader.

Data set [4] has as its system T. cruzi (Dm28c-Luc) in Vero cell cultures. Nature of the data set: Washout (recovery) assay in T. cruzi-infected Vero cell cultures. In kind it is cell-based, Trypanosoma cruzi. Particulars: washout assay, concentration and day not stated. The protocol: The culture medium of the untreated and treated infected cultures was replaced every 3 or 4 days by a fresh medium with or without the pyrazole-thiadiazole derivatives. The presence of free viable parasites in the culture supernatant was monitored at each medium change by adding luciferin (300 µg/mL) followed by readout on a Glomax microplate reader. At the endpoint, culture supernatants and cell monolayers were evaluated for viable parasites. Positive and negative controls were performed using Bz (150 µM) and DMSO (≤1%), respectively. A minimum of 3 independent experimental runs were performed with 12 replicates.

The test system of a further data set is Leishmania. The arrangement: method as in PMID 32492796. Particulars: cited from earlier work.
[5] abbreviates: Vero, read-out: Intracellular Amastigotes pIC50 (converted).
Setting [6] is: Dm28c-Luc in Vero cells, 72 h treatment, mean ± SD, read-out: Anti-T. cruzi Activity Intracellular Amastigotes IC50.
Where [7] appears, read: Dm28c-Luc in Vero cells, 72 h treatment, mean ± SD.

Each structure is given as a SMILES string. Like-named read-outs stand apart in the source and are kept apart here.

As to `Nc1nnc(-c2cnn(-c3ccc(Cl)cc3Cl)c2N)s1` [2c, 5-Amino-2-(5-amino-1-(2,4-dichlorophenyl)-1H-pyrazol-4-yl)-1,3,4-thiadiazole], the melting point lay within 165 to 167 °C. For the same molecule, the CC50 at 72 h in data set [1] is above 500 µM. The “Intracellular Amastigotes SI (CC50 of Vero cells/IC50 of intracellular amastigotes)” value (“Intracellular Amastigotes SI” for short) in data set [2] is listed as above 7.14. Further, in data set [2] (setting [5]), the IC50 was above 70.8 µM. Further, the IC50 in data set [2] (setting [6]) is above 70 µM. Moreover, the IC90 in data set [2] (setting [7]) was above 70 µM. Also, in data set [3], the “Trypomastigotes SI (CC50 of Vero cells/IC50 of trypomastigotes)” value (shortened to “Trypomastigotes SI”) is on record as above 5, the IC50 was above 100 µM and the IC90 was above 100 µM. Also, the “Reduction of the release of trypomastigotes” value in data set [4] is at least 82%.

Molecule `Nc1nnc(-c2cnn(-c3cc(Cl)cc(Cl)c3)c2N)s1` [2d, 5-Amino-2-(5-amino-1-(3,5-dichlorophenyl)-1H-pyrazol-4-yl)-1,3,4-thiadiazole] had a melting point of 299 to 300 °C. Further, in data set [1], the CC50 at 72 h is above 500 µM. Moreover, the “Intracellular Amastigotes SI” value in data set [2] is recorded as above 7.14. The IC50 in data set [2] (setting [5]) was above 70.8 µM. Besides, the IC50 in data set [2] (setting [6]) is above 70 µM. Further, the IC90 in data set [2] (setting [7]) is above 70 µM. Further, in data set [3], the “Trypomastigotes SI” value is above 5, the IC50 is above 100 µM and the IC90 was above 100 µM.

Molecule `Nc1nnc(-c2cnn(-c3ccc(Cl)c(Cl)c3)c2N)s1` [2e, 5-Amino-2-(5-amino-1-(3,4-dichlorophenyl)-1H-pyrazol-4-yl)-1,3,4-thiadiazole] came in with a melting point of 258 to 260 °C. In data set [1], the CC50 at 72 h is above 500 µM. For the same molecule, the “Intracellular Amastigotes SI” value in data set [2] was above 13.73. Further, the IC50 in data set [2] (setting [5]) was 33.9 µM. The IC50 in data set [2] (setting [6]) stood at 33.6 ± 2.16 µM. The IC90 in data set [2] (setting [7]) amounted to 58.8 ± 8.26 µM. Further, in data set [3], the “Trypomastigotes SI” value is listed as above 6.88, the IC50 stood at 72.6 ± 6.76 µM and the IC90 was above 100 µM.

With `Nc1nnc(-c2cnn(-c3ccc(Cl)cc3)c2N)s1` [2f, 5-Amino-2-(5-amino-1-(4-chlorophenyl)-1H-pyrazol-4-yl)-1,3,4-thiadiazole], the melting point was in the range of 238 to 240 °C. The CC50 at 72 h in data set [1] was above 500 µM. Moreover, the “Intracellular Amastigotes SI” value in data set [2] was above 7.14. Also, in data set [2] (setting [5]), the IC50 is above 70.8 µM. For the same molecule, the IC50 in data set [2] (setting [6]) was above 70 µM. Moreover, in data set [2] (setting [7]), the IC90 is above 70 µM. In addition, in data set [3], the “Trypomastigotes SI” value was above 5, the IC50 is above 100 µM and the IC90 is above 100 µM.

Molecule `Nc1nnc(-c2cnn(-c3ccc(F)cc3)c2N)s1` [2g, 5-Amino-2-(5-amino-1-(4-fluorophenyl)-1H-pyrazol-4-yl)-1,3,4-thiadiazole] had a melting point of 251 to 253 °C. In addition, the CC50 at 72 h in data set [1] was above 500 µM. The “Intracellular Amastigotes SI” value in data set [2] is given as above 7.14. The IC50 in data set [2] (setting [5]) was above 70.8 µM. The IC50 in data set [2] (setting [6]) is above 70 µM. Moreover, the IC90 in data set [2] (setting [7]) is above 70 µM. In data set [3], the “Trypomastigotes SI” value is above 5, the IC50 was above 100 µM and the IC90 was above 100 µM.

The molecule `Nc1nnc(-c2cnn(-c3cccc(F)c3)c2N)s1` [2h, 5-Amino-2-(5-amino-1-(3-fluorophenyl)-1H-pyrazol-4-yl)-1,3,4-thiadiazole] yielded a melting point of 285 to 286 °C. Moreover, the CC50 at 72 h in data set [1] was above 500 µM. Moreover, the “Intracellular Amastigotes SI” value in data set [2] was above 7.14. Besides, the IC50 in data set [2] (setting [5]) was above 70.8 µM. Moreover, the IC50 in data set [2] (setting [6]) was above 70 µM. Also, the IC90 in data set [2] (setting [7]) was above 70 µM. In data set [3], the “Trypomastigotes SI” value is on record as above 5, the IC50 is above 100 µM and the IC90 was above 100 µM.

For `Nc1nnc(-c2cnn(-c3ccc(Br)cc3)c2N)s1` [2i, 5-Amino-2-(5-amino-1-(4-bromophenyl)-1H-pyrazol-4-yl)-1,3,4-thiadiazole], the melting point lay in the range of 286 to 287 °C. Besides, in data set [1], the CC50 at 72 h was above 500 µM. The “Intracellular Amastigotes SI” value in data set [2] is listed as above 7.58. For the same molecule, in data set [2] (setting [5]), the IC50 is 69.2 µM. Moreover, the IC50 in data set [2] (setting [6]) amounted to 68.73 ± 0.05 µM. In data set [2] (setting [7]), the IC90 is above 70 µM. Besides, in data set [3], the “Trypomastigotes SI” value is above 5, the IC50 was above 100 µM and the IC90 is above 100 µM.

Molecule `Nc1nnc(-c2cnn(-c3cccc(Br)c3)c2N)s1` [2j, 5-Amino-2-(5-amino-1-(3-bromophenyl)-1H-pyrazol-4-yl)-1,3,4-thiadiazole] had a melting point of 245 to 246 °C. The CC50 at 72 h in data set [1] was above 500 µM. Further, in data set [2], the “Intracellular Amastigotes SI” value is on record as above 7.14. The IC50 in data set [2] (setting [5]) was above 70.8 µM. The IC50 in data set [2] (setting [6]) was above 70 µM. Besides, in data set [2] (setting [7]), the IC90 was above 70 µM. In data set [3], the “Trypomastigotes SI” value was above 5, the IC50 is above 100 µM and the IC90 is above 100 µM.

In the case of `COc1ccc(-n2ncc(-c3nnc(N)s3)c2N)cc1` [2l, 5-Amino-2-(5-amino-1-(4-methoxyphenyl)-1H-pyrazol-4-yl)-1,3,4-thiadiazole], the melting point is 303 to 305 °C. For the same molecule, the CC50 at 72 h in data set [1] is above 500 µM. The “Intracellular Amastigotes SI” value in data set [2] is listed as above 7.14. Also, the IC50 in data set [2] (setting [5]) is above 70.8 µM. Further, the IC50 in data set [2] (setting [6]) is above 70 µM. Besides, the IC90 in data set [2] (setting [7]) was above 70 µM. Also, in data set [3], the “Trypomastigotes SI” value was above 100, the IC50 was above 100 µM and the IC90 is above 100 µM.

Turning to `C[C@@H]1[C@H](O)[C@@H](C)/C=C/C=C/C=C/C=C/C=C/C=C/C=C/[C@H](O[C@@H]2O[C@H](C)[C@@H](O)[C@H](N)[C@@H]2O)C[C@@H]2O[C@](O)(C[C@@H](O)C[C@@H](O)[C@H](O)CC[C@@H](O)C[C@@H](O)CC(=O)O[C@H]1C)C[C@H](O)[C@H]2C(=O)O` [amphotericin B], the EC50 with Leishmania (2D model) was 0.0349 µM; in the data set with Leishmania (3D macrophage cultures), 0.0523 µM. Besides, the “Increase in the EC50 value of 3D vs 2D macrophage cultures” value in the data set with Leishmania is recorded as 33%.
